From a melting point compilation (Tetko et al.; mined from patent text by program, amines drawn as free bases though some values may be those of a salt)

Row | melting point | SMILES
1 | 109 to 110 °C | CCOC(=O)c1c(O)c2ccc(Cl)cc2c(=O)n1C
2 | 238 to 243 °C | ClCc1c2ccccc2c(CCl)c2ccccc12
3 | 165 to 166 °C | CCCc1nnc(/C=C/c2cn(-c3ccccc3)nc2OCc2ccc(OCc3nc(-c4ccco4)oc3C)c(OC)c2)o1
4 | 130 to 132 °C | COc1ccc(C(=O)Nc2cnccc2Cl)cc1OC1CCCC1
5 | 93 °C | Cc1c(F)c(Oc2ccc(F)c(F)c2)nc(Oc2cc(C(F)(F)F)nn2C)c1F
6 | 147 °C | COCCOc1cc(N(C)S(=O)(=O)c2ccccn2)c2[nH]c(C3=N[C@@H](CO)CS3)cc2c1
7 | 235 to 236 °C | Oc1ncc(-c2cccc(Cl)c2)cn1
8 | 62 to 64 °C | COc1nc(Cl)ccc1C=O
9 | 55 to 57 °C | COCOc1ccc(OCc2ccccc2)c(CBr)c1
10 | 120 °C | COc1ccc(Oc2ccc(OCc3ccccc3)cc2[N+](=O)[O-])cc1
11 | 162 to 166 °C | COC(=O)c1cc(CS(=O)(=O)c2ccccc2)cnc1C1=NC(C)(C(C)C)C(=O)N1C(=O)c1ccccc1 (stereo not drawn)
12 | 179 to 180 °C | Cc1cc(C(=O)CS(C)(=O)=O)cc(C)c1N
13 | 137 °C | Cc1cc(C(C)(CC(=O)c2ccccc2)c2ccccc2)ccc1O (stereo not drawn)
14 | 123 to 125 °C | O=P1(C2CCCC2)c2ccccc2CN1c1ccccc1 (stereo not drawn)
15 | 190 to 192 °C | CCNC1CC=C(c2c[nH]c3ccc(NC(=N)c4cccs4)cc23)CC1 (stereo not drawn)
16 | 218 °C | Cc1cc2ncc(-c3ccc(C(C)(C)C)cc3)c(N)n2n1
17 | 98 to 99 °C | COc1cccc(C(CNC(=O)Cc2c(Cl)cncc2Cl)CC(C)C)c1 (stereo not drawn)
18 | 95 to 96 °C | N#CSCC(=O)N1CCCC1
19 | 115 to 117 °C | Cc1ccccc1Oc1cccc2c1OC(=O)C2(C)C
20 | 78 °C | O=C(CBr)c1ccc(OCCO)cc1
21 | 136 to 138 °C | Nc1cc(S(N)(=O)=O)ccc1S(=O)(=O)CCCO
22 | 82.4 to 84 °C | O=C(C[C@H](NC(=O)C(F)(F)F)C(=O)O)c1ccc(F)cc1F
23 | 87 °C | CC(C)(O)CCCCC(C)(C)O
24 | 106 to 109 °C | Cn1ccn(CC#CCn2ccnc2)c1=O

Row | melting point | SMILES
25 | 121 to 131 °C | C=CCn1c(Oc2cnn(-c3c(Cl)cc(C(F)(F)F)cc3Cl)n2)nc(C#N)c1C#N
26 | 35 °C | CC=Cc1cnn(-c2c(Cl)cc(C(F)(F)F)cc2Cl)n1
27 | 102 to 103 °C | CCOC(=O)c1cn(-c2cccnc2)cn1
28 | 129 °C | COc1cc2c(cc1OC)C(C(CO)CO)=NCC2
29 | 182 °C | O=C(Cl)CC(c1ccccc1)(c1ccccc1)c1ccccc1
30 | 160 to 162 °C | CC(=O)C1CCC2C3CCC4CC(O)C(N5CCOC(Cc6ccccc6)C5)CC4(C)C3C(=O)CC12C (stereo not drawn)
31 | 155 to 157 °C | O=c1oc2cc(Br)ccc2c(O)c1[N+](=O)[O-]
32 | 81 to 85 °C | CCOC(=O)C1=C(C)NC(C)=C(C(=O)OCCN2CCC(C(c3ccccc3)c3ccccc3)CC2)C1c1cccc(Cl)c1Cl (stereo not drawn)
33 | 115 to 117 °C | CC(=O)Nc1nc(-c2ccc(F)c3ccccc23)cc(C(C)C)n1
34 | 220 to 222 °C | CC1CCCCC1C(=O)Nc1ccc(-c2cnc(-c3ccc(NC(=O)C4CCCCCC4)cc3)[nH]2)cc1 (stereo not drawn)
35 | 105 to 106 °C | CCN1CC2(CCN(Cc3ccccc3)CC2)OC1=O
36 | 209 to 210 °C | CN1CCC(NC(=O)c2cccc3nc(-c4ccccc4)oc23)CC1
37 | 83 to 84 °C | CC(CC#N)CN1C(=O)c2ccccc2S1(=O)=O (stereo not drawn)
38 | 64 °C | COC(=O)CCCc1cc2nc(Cl)ccc2n1S(=O)(=O)c1cccc2cccnc12
39 | 193 to 194 °C | NC(=O)N1CC(Oc2ccc(Br)cc2)C1
40 | 144 to 145 °C | Cc1noc(-c2ccccc2)c1-c1ccc(S(C)(=O)=O)cc1
41 | 174 to 176 °C | N#Cc1ccc(NC(=O)[C@H]2NCC[C@@H]2O)c2ccccc12
42 | 217 °C | NC(=O)c1nn(-c2c(Cl)cc(C(F)(F)F)cc2Cl)c(N)c1S(=O)(=O)C(F)(F)F
43 | 181 °C | O=C(O)[C@@H]1CCCN1C(=O)C1CCCCN1 (stereo partly drawn)
44 | 72 to 74 °C | Cc1ccc2c(c1)OC(CCO)C(=O)N2Cc1cccc(Cl)c1 (stereo not drawn)
45 | 117 to 121 °C | O=C(O)c1ccc(OCCNC(=O)C2Cc3ccccc3N2S(=O)(=O)c2ccc(-c3cc(C(F)(F)F)ccc3Cl)cc2)cc1 (stereo not drawn)
46 | 135 to 136 °C | Cc1oc(-c2ccccc2)nc1CCOc1ccc(CN(O)C(N)=O)cc1F
47 | 137 °C | CCOC(=O)Nc1c(C(=O)OC)sc2cc(OC)ccc12
48 | 130 to 132 °C | OCCc1nccn1CCCCc1ccc(OCc2coc(/C=C/c3ccc(F)cc3)n2)cc1

Row | melting point | SMILES
49 | 114 to 116 °C | COc1ccc(Cc2nc(OCc3ccccc3)cc3cc(OC)c(OC)cc23)cc1OC
50 | 95 to 96 °C | COCNC(=S)n1nc(Oc2c(Cl)cc(C(F)(F)F)cc2Cl)cc1C
51 | 172 to 174 °C | C=CCN1C(=O)NC(C)=C(C(=O)OC(C)C)C1c1cccc([N+](=O)[O-])c1 (stereo not drawn)
52 | 131 to 134 °C | N#Cc1cc(C(=O)NNC(=O)c2occc2-c2cccc(OCCc3ccccc3)c2)ccc1O
53 | 110 to 111 °C | CCCOc1cc(COc2c(CC)cccc2CC(=O)O)n(Cc2ccc3ccccc3n2)n1
54 | 192 °C | C=CC(=O)NCNC(=O)CCS(=O)(=O)Cl
55 | > 220 °C | FC1(F)N=c2cc3c(cc2=N1)OC(Cl)O3
56 | 174 to 175 °C | COc1nc2ccccc2cc1NC(=O)N1CCN(c2cccc(C)c2C)CC1
57 | > 275 °C | O=c1ccc(S(=O)(=O)c2cc3c(=O)[nH]ccc3o2)n[nH]1
58 | > 300 °C | Nc1nc2cc[nH]c2c(=O)[nH]1
59 | 96 to 97 °C | CC(=O)OC(c1ccccc1)C1CNC1=O (stereo not drawn)
60 | 162 to 164 °C | O=C1NC(=O)C(=Cc2ccc(N3CCC(NC[C@H](O)COc4cccc5[nH]c(=O)[nH]c45)CC3)c(F)c2)S1
61 | 211 to 214 °C | Cc1cccc(-c2cc(=O)c(C)c(-c3ccccc3)n2-c2ccccc2F)c1
62 | 291 to 292 °C | O=c1ccc2c(-n3ccnc3)nccc2[nH]1
63 | 200 to 205 °C | CC(O)=C1SC(=S)N(c2ccc(Cl)cc2)C1=O
64 | 187 to 190 °C | CNc1ccc(C(=O)NCCC(=O)O)cc1[N+](=O)[O-]
65 | 217 to 218 °C | CCCCNC(=O)NCc1ccc(Nc2n[nH]c3ncnc(Nc4cccc(Cl)c4)c23)cc1
66 | 179 to 181 °C | CCCNc1nc(-c2ccc(OC)c(OC)c2)nc2sc(C#N)c(C)c12
67 | 194 to 197 °C | Cc1cncn1CC#CCN1CCCC1=O
68 | 238 to 240 °C | COc1c(-c2cc3c(s2)C(O)CCC3)ccc2c(=O)c(C(=O)O)cn(C3CC3)c12 (stereo not drawn)
69 | 138 °C | CCC(=O)OC1(C(=O)COC(C)=O)CCC2C3CC(C)C4=CC(=O)C=CC4(C)C3C(O)CC21C (stereo not drawn)
70 | 109 °C | Cn1cc(Cl)c2cc(C=O)ccc21
71 | 186 to 188 °C | CCCn1cc(C(=O)NCc2ccc(Cl)cc2)c(=O)c2cc(CCl)sc21
72 | 197 to 198 °C | CCc1nc(N)nc(N)c1-c1ccccc1Cl

Row | melting point | SMILES
73 | 108 to 110 °C | COC(=O)c1cccc(C=CC(=O)c2cc(OC)ccc2OC)c1
74 | 217 to 218 °C | CCCn1cnc2c1c1n[nH]c(=O)n1c(=O)n2CCC
75 | 200 °C | NC(=O)C=Cc1ccc(N)cc1
76 | 160 to 169 °C | CN(C)c1nc(=O)c2ccccc2n1Cc1ccc(F)cc1
77 | 198 to 199 °C | N#Cc1ccc2c(c1)C1(COc3cc4c(cc31)OCCO4)C(=O)N2Cc1ccccn1 (stereo not drawn)
78 | 198 to 199 °C | Cc1cccc(NC(=O)NC2N=C(C3CCCC3)c3ccccc3N(Cc3ncccc3C)C2=O)c1 (racemic)
79 | 58 to 64 °C | ClC(Cl)(Cl)C1NCC(c2ccccc2)O1 (stereo not drawn)
80 | 169 to 171 °C | CC1Cc2c(N=C=O)ccc(Cl)c2O1 (stereo not drawn)
81 | 118 to 120 °C | O=C(O)CCCc1ccc(-c2ccc(F)cc2)cc1
82 | 175 to 177 °C | Cc1ccc(C(O)(Cc2nnnn2C)c2ccc(C)cc2C)c(C)c1
83 | 131 to 141 °C | O=C(O)CCCCCCC1C(=O)CCC1=O
84 | 228 °C | Cc1cc(/C=C/C(=O)O)c(C)c([N+](=O)[O-])c1
85 | 234 to 237 °C | CC(c1oc2ccccc2c(=O)c1-c1cccc(F)c1)n1nc(-c2ccc3c(c2)OCCCO3)c2c(N)ncnc21 (stereo not drawn)
86 | 157 to 158 °C | COc1nc(C)nc(NC(=O)NS(=O)(=O)c2ccccc2C(=O)O)n1
87 | 76 to 78 °C | CCOC(=O)c1cc(CC)sc1Nc1ccc(Br)cc1[N+](=O)[O-]
88 | 126 to 127 °C | CCCCN1C(=O)c2ccc(O)cc2C1=O
89 | 117 to 120 °C | CCC(N1CCC(Oc2c(F)c(F)c(F)c(F)c2F)CC1)n1c(=O)[nH]c2ccccc21 (stereo not drawn)
90 | 128 to 135 °C | FC(F)(F)c1ccc2nc(CN3CCN(c4ccc(Cl)cc4)CC3)cn2c1
91 | 88 to 90 °C | O=S(=O)(Cl)C=Cc1c(Cl)cccc1Cl
92 | 210 to 211 °C | Cn1c(COc2ccc(CC3SC(=O)NC3=O)cc2)nc2ccc(OCc3ccccc3)nc21 (stereo not drawn)
93 | 127 to 129 °C | O=C1CC[C@@H](c2ccccc2)[C@H](c2ccccc2)N1CO (relative stereo)
94 | 107 to 109 °C | S=C(Nc1ccccc1)Nc1ncccc1OCc1ccccc1

Row | SMILES | melting point
95 | COC(=O)c1cc(CI)on1 | 91 to 95 °C
96 | CC(C)(C)CCN1C(=O)C(NC(=O)Oc2ccccc2)C(=O)N(c2ccccc2)c2ccccc21 (stereo not drawn) | 170 to 172 °C
97 | ClCCN(CCCl)CCOc1ccc(Nc2c3ccccc3nc3c(OCCN(CCCl)CCCl)cccc23)cc1 | 105 to 106 °C
98 | CNC1=Nc2ccc(Cl)cc2N(c2ccccc2)C(=O)C1 | 215 to 217 °C
99 | FC(F)(F)c1ccccc1NC(=S)N1CCc2c(sc3c2C(c2ccccc2Cl)=NCc2nnc(Cc4ccccc4)n2-3)C1 | 239 to 240 °C
100 | O=C(c1cc(C2=CC3CCC(C2)N3)ccn1)N(O)Cc1ccccc1 (stereo not drawn) | 95 to 100 °C
101 | c1ccc(CCC2=NOC3(CCNCC3)C2)cc1 | 106 to 109 °C
102 | O=C(O)c1cnc(S)n1C(c1ccccc1)c1ccccc1 | 158 °C
103 | COc1nc2c(c(OC)n1)C(c1cc(OC)c(OC)c(OC)c1)C1=C(COC1=O)N2 (stereo not drawn) | 299 to 300 °C
